Tests used:
Type in all cases: functional
P388 [1] = assay: In vivo antileukemic activity against mouse P388 cells at 0.5 mg/kg relative to control
P388 [2] = assay: In vivo antileukemic activity against mouse P388 cells at 10 mg/kg relative to control
P388 [3] = assay: In vivo antileukemic activity against mouse P388 cells at 6 mg/kg relative to control
P388 [4] = assay: In vivo antileukemic activity against mouse P388 cells at 20 mg/kg relative to control
P388 [5] = assay: In vivo antileukemic activity against mouse P388 cells at 1 mg/kg relative to control

Row | SMILES | T/C (P388 [1]) | T/C (P388 [2]) | T/C (P388 [3]) | T/C (P388 [4]) | T/C (P388 [5])
1 | COC(=O)[C@]12OC[C@@]34[C@H](C[C@H]5[C@H](C)C(=O)C(O[C@@H]6O[C@H](CO)[C@@H](O)[C@H](O)[C@H]6O)=C[C@]5(C)[C@H]3[C@@H](O)[C@@H]1O)OC(=O)[C@H](OC(=O)/C=C(\C)C(C)C)[C@@H]24 [BRUCEANTINOSIDE A] | 110% | 152% | 118% | 172% | 106%
2 | COC(=O)[C@]12OC[C@@]34[C@H](C[C@H]5C(C)=C(O[C@@H]6O[C@H](CO)[C@@H](O)[C@H](O)[C@H]6O)C(=O)C[C@]5(C)[C@H]3[C@@H](O)[C@@H]1O)OC(=O)[C@H](OC(=O)/C=C(\C)C(C)C)[C@@H]24 [BRUCEANTINOSIDE B] | – | 132% | – | 160% | –
